Data as given in patent publication US20090082304A1, “Methods of Treating Hematological Malignancies with Nucleoside Analog Drugs” (NORTHWESTERN UNIVERSITY, priority 2004, published 2009).

Assays:
MKK3/6 = experiment: Immunoblot of phospho-MKK3/6 in MM.1 S cells; format: cell-based; settings: 10 μM
Experimental: (§1) 5×10^6 were cells treated with 10 μM 8-NH2-Ado for the indicated times and harvested. Cell pellets were washed with cold phosphate-buffered saline (PBS; 8.1 g NaCl, 1.14 g Na2HPO4, 0.22 g KCl, and 0.25 g/L KH2PO4) and incubated with lysis buffer (50 mM HEPES, 150 mM NaCl, 1.5 mM MgCl2, 1 mM EDTA pH 8.0, 100 mM NaFI, 10 mM Na Pyrophosphate, 500 μM PMSF, 0.5% Triton X-100, 10% glycerol) at 4° C. for one hour. Lysates were centrifuged at 4° C. for 1 minute at 9000×g, and the supernatants were collected and stored at −20° C. Protein concentration was determined by Bio-Rad protein assay (BioRad Laboratories, Hercules, Calif.). Protein, at a concentration of 30 μg, was mixed with sample buffer (125 mM Tris, pH 6.8, 4% SDS, 20% glycerol, 100 mM Dithiothreitol (DTT), and 0.05% bromophenol blue), and fractionated on a pre-cast 8-16% Tris-Glycine gel (Invitrogen/Novex, Carlsbad, Calif.). Proteins were then transferred to a Polyvinylidene Fluoride (PVDF) membrane (Immobilon-P, Millipore, Bedford, Mass.): Following protein transfer, membranes were blocked with 5% non-fat milk in PBS-T (PBS with 0.1% Tween), incubated with the primary antibody overnight at 4° C. and subsequently with horseradish peroxidase linked secondary antibody (Amersham, Arlington Heights, Ill.). […]

p90RSK = experiment: Immunoblot of phospho-p90RSK in MM.1 S cells; format: cell-based; settings: 10 μM, 0-6 hours
Experimental: as §1

Akt kinase = experiment: Immunoblot of phospho-Akt in MM.1 S cells; format: cell-based; settings: 10 μM
Experimental: 5×10^6 were cells treated with 10 μM 8-NH2-Ado for the indicated times and harvested. Cell pellets were washed with cold phosphate-buffered saline (PBS; 8.1 g NaCl, 1.14 g Na2HPO4, 0.22 g KCl, and 0.25 g/L KH2PO4) and incubated with lysis buffer (50 mM HEPES, 150 mM NaCl, 1.5 mM MgCl2, 1 mM EDTA pH 8.0, 100 mM NaFI, 10 mM Na Pyrophosphate, 500 μM PMSF, 0.5% Triton X-100, 10% glycerol) at 4° C. for one hour. Lysates were centrifuged at 4° C. for 1 minute at 9000×g, and the supernatants were collected and stored at −20° C. Protein concentration was determined by Bio-Rad protein assay (BioRad Laboratories, Hercules, Calif.). Protein, at a concentration of 30 μg, was mixed with sample buffer (125 mM Tris, pH 6.8, 4% SDS, 20% glycerol, 100 mM Dithiothreitol (DTT), and 0.05% bromophenol blue), and fractionated on a pre-cast 8-16% Tris-Glycine gel (Invitrogen/Novex, Carlsbad, Calif.). Proteins were then transferred to a Polyvinylidene Fluoride (PVDF) membrane (Immobilon-P, Millipore, Bedford, Mass.): Following protein transfer, membranes were blocked with 5% non-fat milk in PBS-T (PBS with 0.1% Tween), incubated with the primary antibody overnight at 4° C. and subsequently with horseradish peroxidase linked secondary antibody (Amersham, Arlington Heights, Ill.). Blots were developed using ECL Plus Chemiluminescent Western Blotting Detection reagent (Amersham, Arlington Heights, Ill.) and the signal was visualized with X-ray film (Hyperfilm, Amersham, Arlington Heights, Ill.). For reprobing purposes, blots were stripped using Restore Western Blot Stripping Buffer from Pierce Biotechnology (Rockford, Ill.). Phospho-MKK3/6 (Ser189/207), phospho-p38 (Thr180/Tyr182), phospho-ATF-2 (Thr69/71), phospho-c-Raf (Ser259), phospho-MEK1/2 (Ser217/221), total MEK1/2, phospho-ERK1/2 (Thr202/Tyr204), total ERK1/2, phospho-p90RSK (Ser380), total RSK, phospho-PDK1 (Ser241), total PDKI, phospho-PTEN (Ser380), total PTEN, phospho-Akt (Ser473), total Akt, phospho-GSK-3β (Ser9), total GSK-3β, phospho-FKHRLI (Thr32)/-FKHR (Thr24), phospho-FKHR (Ser256) primary antibodies were obtained from Cell Signaling Technology (Beverly, Mass.). Total MKK3, total MKK6, total p38, total ATF-2, total c-Raf, total FKHR, total FKHRLI, phospho-JNK and total JNK were purchased from Santa Cruz Biotechnology (Santa Cruz, Calif.). Caspase 3, caspase 9, and PARP antibodies were obtained from Pharmingen (San Diego, Calif.) and anti-MKP1 from Upstate (Lake Placid, N.Y.). Anti-caspase 8 mouse serum was a generous gift of Dr. Marcus Peter (University of Chicago).
MM.1 S cells were exposed to 10 μM 8-NH2-Ado for 0, 0.5, 1, 2, 4 and 6 hours, after which cells were lysed as previously (Example 2). 30 μg of protein was separated by gel electrophoresis, transferred to PVDF membrane, and probed with phosphorylation-specific antibodies to MKK3/6, p38 MAPK, ATF-2, MEK1/2, ERK1/2, p90RSK, JNK1, PDK1, Akt, FKHRL1 and GSK-3β.
MM. I S cells were treated with 10 μM 8-chloro-adenosine for 0, 0.5, 1, 2, 4 or 6 hours or 10 μM of cytarabine, fludarabine, gemcitabine or 8-amino-adenosine for 4 hours. Cells were lysed as previously described and 30 μg of protein was separated by gel electrophoresis, transferred to PVDF membrane, and probed with phospho-p38 MAPK (Thr180/Tyr182) antibody.
MM.1 S cells were grown in dextrose-free media and treated with 2 μM Antimycin A, 5 mM 2-DOG, and varying concentrations of dextrose for 90 minutes. Cellular ATP levels were determined using triplicate samples in a luciferase based assay and are expressed here as a percentage of untreated control.

FKHRL1 = experiment: Immunoblot of phospho-FKHRL1 in MM.1 S cells; format: cell-based; settings: 10 μM
Experimental: as §1

FKHR = experiment: Immunoblot of phospho-FKHR in MM.1 S cells; format: cell-based; settings: 10 μM, data not shown
Experimental: as §1

GSK-3β = experiment: Immunoblot of phospho-GSK-3β in MM.1 S cells; format: cell-based; settings: 10 μM
Experimental: as §1

[1] = system: p38 in RPMI-8226, MDR10V and MM.1 R cells; experiment: Phosphorylation of p38 in additional myeloma cell lines; format: cell-based; settings: data not shown
Experimental: as §1, with “Calif.).” for “Calif.). Proteins were then transferred to a Polyvinylidene Fluoride (PVDF) membrane (Immobilon-P, Millipore, Bedford, Mass.): Following protein transfer, membranes were blocked with 5% non-fat milk in PBS-T (PBS with 0.1% Tween), incubated with the primary antibody overnight at 4° C. and subsequently with horseradish peroxidase linked secondary antibody (Amersham, Arlington Heights, Ill.).”
The effect of 8-NH2-Ado treatment on phosphorylation levels was assessed in additional myeloma cell lines, to determine whether the drug-induced alterations in protein phosphorylation occur in multiple cells lines or are limited to the MM.1 S myeloma cell line.

caspase 8 = experiment: Caspase 8 activation immunoblot in MM.1 S cells; format: cell-based; settings: 10 μM
Experimental: as §1, with “Calif.).” for “Calif.). Proteins were then transferred to a Polyvinylidene Fluoride (PVDF) membrane (Immobilon-P, Millipore, Bedford, Mass.): Following protein transfer, membranes were blocked with 5% non-fat milk in PBS-T (PBS with 0.1% Tween), incubated with the primary antibody overnight at 4° C. and subsequently with horseradish peroxidase linked secondary antibody (Amersham, Arlington Heights, Ill.).”
(§2) MM.1 S cells were exposed to 10 μM 8-NH2-Ado for 0, 0.5, 1, 2, 4 or 6 hours, after which cells were lysed as previously described. […] Total protein levels were also assessed to ensure equal loading and transfer (data not shown). […]

[2] = system: poly (ADP-ribose) polymerase; experiment: PARP cleavage immunoblot in MM.1 S cells; format: cell-based; settings: 10 μM
Experimental: as §1, with “Calif.).” for “Calif.). Proteins were then transferred to a Polyvinylidene Fluoride (PVDF) membrane (Immobilon-P, Millipore, Bedford, Mass.): Following protein transfer, membranes were blocked with 5% non-fat milk in PBS-T (PBS with 0.1% Tween), incubated with the primary antibody overnight at 4° C. and subsequently with horseradish peroxidase linked secondary antibody (Amersham, Arlington Heights, Ill.).”
as §2

PKC-8 = experiment: Phosphorylation status of PKC-8; format: cell-based
STAT proteins = experiment: Phosphorylation status of STAT proteins; format: cell-based
MM cells = settings: cited from earlier work

What does the source list for `Nc1ncnc2c1nc(N)n2[C@@H]1O[C@H](CO)[C@@H](O)[C@H]1O` [8-NH2-Ado, 8-amino-adenosine]?
Phosphorylated MKK3/6 protein levels (MKK3/6; by 2 hours): decrease significantly; Phosphorylated MKK3/6 protein levels (MKK3/6; by 6 hours): negligible; phosphorylation level of p90RSK (p90RSK): modestly decrease; phosphorylation of Akt (Akt kinase; 4 hours, data not shown): dramatic loss of phosphorylation; Phospho-Akt levels (Akt kinase; by 2 hours): decrease significantly; Phospho-Akt levels (Akt kinase; eventually (after 2 hours)): decline further to negligible levels; FKHRLI phosphorylation (FKHRL1; at 4 and 6 hours): no appreciable phosphorylation; FKHRLI phosphorylation (FKHRL1; by 2 hours): decreases dramatically; FKHR phosphorylation (FKHR): similarly affected; Phospho-OSK-3p levels (GSK-3β; by 2 hours): diminish; Phospho-OSK-3p levels (GSK-3β; by 6 hours): negligible; Phosphorylation levels of p38 [1]: decrease in a dose-dependent manner; time at which cleaved and activated caspase 8 appears (caspase 8): 2 to 4 h; start of cleavage of poly (ADP-ribose) polymerase [2]: ≥ 2 h; phosphorylation status of PKC-8 (PKC-8): unaltered; phosphorylation status of the STAT proteins (STAT proteins): unaltered; cytotoxicity (MM cells): affected by the cytotoxic ability
